From patent publication US8628961B2, “Small molecule antagonists of phosphatidylinositol-3,4,5-triphosphate (PIP3) and uses thereof” (Tufts University, priority 2010, dated 2014)

What was measured:
PH123 = PH123 (Homo sapiens (Human), UniProt P31749); experiment: Lipid overlay assay of PIP3/PH123 binding
Bcl-xL = Bcl-xL (Homo sapiens (Human), UniProt Q07817); experiment: NMR HSQC specificity control; assay type: binding
eIF-1 = eIF-1 (Homo sapiens (Human), UniProt P41567); experiment: NMR HSQC specificity control; assay type: binding
PI3K-PDK1-Akt signaling = PI3K-PDK1-Akt signaling in growth factor-stimulated SUM159 cells; assay type: cell-based, human
[1] = tested on: PI3K/PDK1/Akt signaling pathway; experiment: PIP3-dependent phosphorylation events in HUVEC, Western blotting; assay type: cell-based, human; conditions: 50, 100 and 200 μM, 2 hr, bFGF
Protocol: Endothelial cell migration plays a central role in tumor angiogenesis. Avraamides C J et al. (2008) Nat Rev Cancer 8:604-17. […] First, human umbilical vein endothelial cells (HUVEC) cells were serum starved overnight, and treated with different concentrations of PIT-1 (50, 100 and 200 μM) for 2 hr, followed by stimulation with 10 ng/ml bFGF for 15 min, and the PIP3-dependent phosphorylation events were evaluated by Western blotting.

[2] = tested on: PTEN-deficient U87MG cells; experiment: Sytox cell death assay, U87MG re-expressing wild-type or R130M mutant PTEN; assay type: cell-based, human; conditions: 25, 50, 100 μM, 48 hr
Protocol: After treatment with 25, 50, or 100 μM PIT-1 for 48 hr, cell death was analyzed using Sytox cell death assay.
Based on the critical role of PIP3-dependent […] signaling in the regulation of cell survival, the effect of PIT-1 on the cancer cell viability was tested. Cancer cells were seeded into 96-well plates (white plates for ATP assay; black plates for fluorescent assay; clear plates for MTS assay) at the density of 5-10×10^3 cells per well in 100 μl of the appropriate media. Compounds were added at a series of concentrations and incubated for different times. For the ATP assay, a luminescence-based commercial kit (CellTiter-Glo, Promega, Madison, Wis.) was used. Thirty microliters of cell lysis/ATP detection reagent was added to each well, mixed for 10 min at room temperature, and the luminescence was measured using a Wallac Victor 3 plate reader (Perkin-Elmer, Wellesley, Mass.). […] Twenty microliters of the combined MTS/PMS solution was added into each well, incubated for 4 hr at 37° C., and the absorbance at 490 nm was measured using a Wallac Victor 3 plate reader. For the Sytox cell death assay, measuring loss of plasma membrane integrity, cells were incubated with 1 μM Sytox Green reagent (Molecular Probes, Eugene, Oreg.) for 30 min at 37° C. and the fluorescence intensity was measured using Wallac Victor 3 plate reader with excitation at 485 nm and emission at 545 nm. […]

U87MG cells [3] = experiment: Sensitization of U87MG cells to TRAIL, ATP assay; assay type: cell-based, human; conditions: 10 ng/ml TRAIL, 48 hr
Protocol: FIG. 10 is a bar graph depicting that PITs, as well as Akt inhibitor VIII, sensitize U87MG cells to killing by TRAIL. U87MG cells were incubated with 50 μM PIT-1, PIT-2, PIT-1i-1 or 10 μM Akt inhibitor VIII in the presence or absence of 10 ng/ml TRAIL for 48 hr, followed by cell viability analysis using ATP assay.
Upregulation of PI3K/Akt signaling is an important mechanism of chemoresistance of cancer cells. Blume-Jensen P et al. (2001) Nature 411:355-65; Osaki M et al. (2004) Apoptosis 9:667-76. […] Puduvalli V K et al. (2005) Apoptosis 10:233-43 TRAIL represents a particularly promising anti-cancer agent due to its intrinsic selectivity towards cancer cells which is associated with the expression of the decoy receptors by many (but not all) normal cells. Abe K et al. (2000) Ann NY Acad Sci 926:52-63. […] Oka N et al. (2005) Cancer Res 65:7546-53.

U87MG cells [4] = experiment: Cell death with pan-caspase inhibitor zVAD.fmk, Sytox assay; assay type: cell-based, human; conditions: 100 μM zVAD.fmk
Protocol: FIG. 11 is a bar graph depicting that cell death triggered by PIT-1 alone or in combination with TRAIL is inhibited by pan-caspase inhibitor zVAD.fmk. U87MG cells were incubated with or without 100 μM zVAD.fmk together with PIT-1 (25, 50, 100 μM) in the presence or absence of 10 ng/ml TRAIL for 24 hr, and analyzed by Sytox cell death assay.
Since PI3K/PIP3/Akt signaling plays a critical role in the inhibition of apoptosis (Datta S R et al. (1999) Genes Dev 13:2905-27), the possibility that PITs induce apoptosis was examined. […] Proapoptotic Bcl-2 family members Bax and Bak are important mediators of apoptosis. Wei M C et al. (2001) Science 292:727-30. […] Non-apoptotic mechanisms of cell death may also play some additional, albeit less important, role in PIT-induced killing, as some cell death was still observed in Bax/Bak-deficient cells and in the presence of zVAD.fmk.

cancer cells = experiment: Cancer cell invasion through matrigel; assay type: cell-based
From the text: Simpson K J et al. (2004) Cancer Res 64:8694-701.

Chain of eIF-1 (P41567 whole entry, species assumed): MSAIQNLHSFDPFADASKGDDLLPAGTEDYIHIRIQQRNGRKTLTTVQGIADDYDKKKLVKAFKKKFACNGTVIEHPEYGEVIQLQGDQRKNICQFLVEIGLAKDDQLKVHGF
Chain of Bcl-xL (Q07817 whole entry, species assumed): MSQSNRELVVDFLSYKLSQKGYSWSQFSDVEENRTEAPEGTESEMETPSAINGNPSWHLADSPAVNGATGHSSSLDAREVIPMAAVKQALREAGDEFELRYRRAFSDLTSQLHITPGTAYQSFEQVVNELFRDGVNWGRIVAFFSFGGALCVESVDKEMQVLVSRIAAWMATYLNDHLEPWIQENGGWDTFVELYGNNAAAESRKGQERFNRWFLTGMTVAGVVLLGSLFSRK
Chain of PH123 (P31749 1-123): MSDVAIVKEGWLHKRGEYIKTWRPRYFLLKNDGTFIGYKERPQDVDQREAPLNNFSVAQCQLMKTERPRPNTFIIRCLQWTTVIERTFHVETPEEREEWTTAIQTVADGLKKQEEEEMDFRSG

SMILES: O=C(NC(=S)Nc1cc([N+](=O)[O-])cc(Cl)c1O)c1ccccc1 [PIT-1]
- inhibitory effect on PIP3/PH123 binding (PH123): concentration-dependent inhibitory effect
- changes in HSQC spectra of Bcl-xL (Bcl-xL): did not elicit any changes
- changes in HSQC spectra of eIF-1 (eIF-1): did not elicit any changes
- PI3K-PDK1-Akt signaling in SUM159 cells (PI3K-PDK1-Akt signaling): significantly suppressed PI3K-PDK1-Akt signaling
- PI3K/PDK1/Akt signaling in HUVEC [1]: capable of blocking PI3K/PDK1/Akt signaling pathway
- toxicity in U87MG lacking PTEN activity versus wild-type PTEN [2]: more pronounced in PTEN-deficient U87MG cells lacking PTEN activity
- sensitization of U87MG cells to killing by TRAIL (U87MG cells [3]): substantially sensitized U87MG cells to killing by TRAIL
- cell death, alone or with TRAIL, in presence of zVAD.fmk (U87MG cells [4]): inhibited by a pan-caspase inhibitor zVAD.fmk
- cancer cell invasion through matrigel (cancer cells): efficiently suppressed cancer cell invasion through matrigel
- cytotoxic effects at concentrations used in migration and invasion experiments (cancer cells; P>0.05): no significant cytotoxic effects
- acquisition of invasive phenotype by SUM-159 cells (cancer cells; reversible): blocked acquisition of the invasive phenotype
